From patent publication US20240325398A1, “COMBINATION THERAPIES” (Infinity Pharmaceuticals, Inc., priority 2014, published 2024)

Columns and labels:
DOHH-2 = test: Combination study, ATPLite 72 h, dose matrix (Synergy Score, CI50); settings: combination with Compound 1, 72 h
OCI-Ly3 = test: as above; settings: combination with Compound 1; OCI-Ly3; 72 h
RPMI-8226 = test: as above; settings: combination with Compound 1
NCI-H929 = test: as above; settings: combination with Compound 1
TMD8 = test: as above; settings: combination with Compound 1; TMD8; 72 h
U-2932 = test: as above; settings: combination with Compound 1, 72 h
HH = test: as above; format: cell-based; settings: combination with Compound 1
Description: The method is described as follows.
Additive effect is CI=1.0. […] Antagonistic effect is CI>1.0.
The Synergy Score is calculated as: […]

WSU-NHL = test: as above; settings: combination with Compound 1, 72 h
Description: (§1) Cells are thawed from a liquid nitrogen preserved state. Once cells have been expanded and divide at their expected doubling times, screening begins. Cells are seeded in growth media in either black 1536-well or 384-well tissue culture treated plates. Cells are then equilibrated in assay plates via centrifugation and placed in incubators attached to the Dosing Modules at 37° C. for 24 hours before treatment. […] These Tzero (To) plates are read using ultra-sensitive luminescence on Envision plate readers (Perkin Elmer). Treated assay plates are incubated with compound for 72 hours. After 72 hours, plates are developed for endpoint analysis using ATPLite. All data points are collected via automated processes, quality controlled and analyzed using Zalicus software.
(§2) where T is treated cell count and V is untreated (vehicle) cell count (at 72 hours). I ranges from 0% (when T=V) to 100% (when T=0). […] The measure of effect in the experiment can be the inhibition of cellular response relative to the untreated level (vehicle alone). […] The inhibition ranges from 0% at the untreated level to 100% when T=0. Inhibition levels are negative for agents that actually increase levels. Other effect measures, such as an activity ratio r=T/V may be more appropriate for some assays. When activity ratios (e.g, fold increase over stimulated control) are being used, the effect can be measured using an induction 1=ln(T/V). With this definition, all effect expressions are the same as for inhibition.
(§3) Growth Inhibition (GI) is used as a measure of cell viability. […] A GI reading of 100% represents complete growth inhibition—T72 compound-treated and T0 vehicle signals are matched. […] A GI reading of 200% represents complete death of all cells in the culture well. Compounds reaching an activity plateau of GI 200% are considered cytotoxic. GI is calculated by applying the following test and equation:
(§4) Combination analysis data were collected in a 6×6 dose matrix. Synergy is calculated by comparing a combination's response to those of its single compound, against the drug-with-itself dose-additive reference model. Deviations from dose additivity may be assessed visually on an isobologram or numerically with a Combination Index (CI). […] Additive effect is CI=1.0. […] Antagonistic effect is CI>1.0.
(§5) To measure combination effects in excess of Loewe additivity, a scalar measure to characterize the strength of synergistic interaction termed the Synergy Score is devised. The Synergy Score is calculated as:
(§6) The fractional inhibition for each component agent and combination point in the matrix is calculated relative to the median of all vehicle-treated control wells. The Synergy Score equation integrates the experimentally-observed activity volume at each point in the matrix in excess of a model surface numerically derived from the activity of the component agents using the Loewe model for additivity. Additional terms in the Synergy Score equation (above) are used to normalize for various dilution factors used for individual agents and to allow for comparison of synergy scores across an entire experiment. The inclusion of positive inhibition gating or an Idata multiplier removes noise near the zero effect level, and biases results for synergistic interactions at that occur at high activity levels.
Loewe Volume (Loewe Vol) is used to assess the overall magnitude of the combination interaction in excess of the Loewe additivity model. Loewe Volume is particularly useful when distinguishing synergistic increases in a phenotypic activity (positive Loewe Volume) versus synergistic antagonisms (negative Loewe Volume). […] This model defines additivity as a non-synergistic combination interaction where the combination dose matrix surface should be indistinguishable from either drug crossed with itself.

Farage = test: as above; settings: combination with Compound 1; Farage; 72 h
Mino = test: as above; settings: combination with Compound 1
OCI-Ly7 = test: as above; settings: combination with Compound 1, 72 h
SU-DHL-4-epst = test: as above; settings: combination with Compound 1, 72 h
RL = test: as above; settings: combination with Compound 1, 72 h
SU-DHL-10-epst = test: as above; settings: combination with Compound 1, 72 h
GRANTA-519 = test: as above; settings: combination with Compound 1
KARPAS-422 = test: as above; settings: combination with Compound 1, 72 h
HBL-1 = test: as above; settings: combination with Compound 1, 72 h
Description: as §1, §2, §3, §4, §5, §6
Loewe Volume (Loewe Vol) is used to assess the overall magnitude of the combination interaction in excess of the Loewe additivity model. Loewe Volume is particularly useful when distinguishing synergistic increases in a phenotypic activity (positive Loewe Volume) versus synergistic antagonisms (negative Loewe Volume). […] This model defines additivity as a non-synergistic combination interaction where the combination dose matrix surface should be indistinguishable from either drug crossed with itself. The calculation for Loewe additivity is:

[1] = as above; settings: combination with Compound 1; OPM-2
OMP-2 = test: as above; settings: combination with Compound 1; OPM-2
KARPAS-299 = test: as above; settings: combination with Compound 1
Jeko-1 = test: as above; settings: combination with Compound 1

For `NC1(c2ccc(-c3nc4ccn5c(=O)[nH]nc5c4cc3-c3ccccc3)cc2)CCC1` [MK-2206, 8-[4-(1-aminocyclobutyl)phenyl]-9-phenyl-2H-[1,2,4]triazolo[3,4-f][1,6]naphthyridin-3-one], the CI50 growth inhibition (DOHH-2) was “S (S=0.01 to <0.5)”, the CI50 inhibition (DOHH-2) was “S (S=0.01 to <0.5)” and the “Synergy Score growth inhibition” value (DOHH-2) was “A3 (A3=>3)”. For the same compound, the “Synergy Score inhibition” value (DOHH-2) was “A3 (A3=>3)”, the CI50 growth inhibition (OCI-Ly3) was “S (S=0.01 to <0.5)” and the CI50 inhibition (OCI-Ly3) was “W (W=≥1)”. For the same compound, the “Synergy Score growth inhibition” value (OCI-Ly3) was “A2 (A2=1 to <3)”, the “Synergy Score inhibition” value (OCI-Ly3) was “A1 (A1=0.0001 to <1)” and the CI50 growth inhibition (RPMI-8226) was “U (U=0.7 to <1)”. For the same compound, the CI50 inhibition (RPMI-8226) was “U (U=0.7 to <1)”, the “Synergy Score growth inhibition” value (RPMI-8226) was “A2 (A2=1 to <3)” and the “Synergy Score inhibition” value (RPMI-8226) was “A1 (A1=0.0001 to <1)”. The CI50 growth inhibition (NCI-H929) was “T (T=0.5 to <0.7)”, the CI50 inhibition (NCI-H929) was “U (U=0.7 to <1)” and the “Synergy Score growth inhibition” value (NCI-H929) was “A3 (A3=>3)”. For the same compound, the “Synergy Score inhibition” value (NCI-H929) was “A2 (A2=1 to <3)”, the CI50 growth inhibition (TMD8) was “S (S=0.01 to <0.5)” and the CI50 inhibition (TMD8) was “S (S=0.01 to <0.5)”. The “Synergy Score growth inhibition” value (TMD8) was “A3 (A3=>3)”, the “Synergy Score inhibition” value (TMD8) was “A3 (A3=>3)” and the CI50 growth inhibition (U-2932) was “U (U=0.7 to <1)”. The CI50 inhibition (U-2932) was “U (U=0.7 to <1)”, the “Synergy Score growth inhibition” value (U-2932) was “A1 (A1=0.0001 to <1)” and the “Synergy Score inhibition” value (U-2932) was “A1 (A1=0.0001 to <1)”. The CI50 growth inhibition (HH) was “S (S=0.01 to <0.5)”, the CI50 inhibition (HH) was “S (S=0.01 to <0.5)” and the “Synergy Score growth inhibition” value (HH) was “A3 (A3=>3)”. The “Synergy Score inhibition” value (HH) was “A2 (A2=1 to <3)”, the CI50 growth inhibition (WSU-NHL) was “S (S=0.01 to <0.5)” and the CI50 inhibition (WSU-NHL) was “S (S=0.01 to <0.5)”. The “Synergy Score growth inhibition” value (WSU-NHL) was “A3 (A3=>3)”, the “Synergy Score inhibition” value (WSU-NHL) was “A3 (A3=>3)” and the CI50 growth inhibition (Farage) was “S (S=0.01 to <0.5)”. The CI50 inhibition (Farage) was “S (S=0.01 to <0.5)”, the “Synergy Score growth inhibition” value (Farage) was “A3 (A3=>3)” and the “Synergy Score inhibition” value (Farage) was “A3 (A3=>3)”. The CI50 growth inhibition (Mino) was “W (W=≥1)”, the CI50 inhibition (Mino) was “U (U=0.7 to <1)” and the “Synergy Score growth inhibition” value (Mino) was “A1 (A1=0.0001 to <1)”. The “Synergy Score inhibition” value (Mino) was “A1 (A1=0.0001 to <1)”, the CI50 growth inhibition (OCI-Ly7) was “U (U=0.7 to <1)” and the CI50 inhibition (OCI-Ly7) was “W (W=≥1)”. For the same compound, the “Synergy Score growth inhibition” value (OCI-Ly7) was “A1 (A1=0.0001 to <1)”, the “Synergy Score inhibition” value (OCI-Ly7) was “A1 (A1=0.0001 to <1)” and the CI50 growth inhibition (SU-DHL-4-epst) was “S (S=0.01 to <0.5)”. For the same compound, the CI50 inhibition (SU-DHL-4-epst) was “S (S=0.01 to <0.5)”, the “Synergy Score growth inhibition” value (SU-DHL-4-epst) was “A3 (A3=>3)” and the “Synergy Score inhibition” value (SU-DHL-4-epst) was “A3 (A3=>3)”. The CI50 growth inhibition (RL) was “S (S=0.01 to <0.5)”, the CI50 inhibition (RL) was “S (S=0.01 to <0.5)” and the “Synergy Score growth inhibition” value (RL) was “A3 (A3=>3)”. For the same compound, the “Synergy Score inhibition” value (RL) was “A3 (A3=>3)”, the CI50 growth inhibition (SU-DHL-10-epst) was “S (S=0.01 to <0.5)” and the CI50 inhibition (SU-DHL-10-epst) was “S (S=0.01 to <0.5)”. The “Synergy Score growth inhibition” value (SU-DHL-10-epst) was “A3 (A3=>3)”, the “Synergy Score inhibition” value (SU-DHL-10-epst) was “A3 (A3=>3)” and the CI50 growth inhibition (GRANTA-519) was “S (S=0.01 to <0.5)”. For the same compound, the “Synergy Score growth inhibition” value (GRANTA-519) was “A1 (A1=0.0001 to <1)”, the “Synergy Score inhibition” value (GRANTA-519) was “A1 (A1=0.0001 to <1)” and the CI50 growth inhibition (KARPAS-422) was “T (T=0.5 to <0.7)”. The CI50 inhibition (KARPAS-422) was “S (S=0.01 to <0.5)”, the “Synergy Score growth inhibition” value (KARPAS-422) was “A2 (A2=1 to <3)” and the “Synergy Score inhibition” value (KARPAS-422) was “A2 (A2=1 to <3)”. For the same compound, the CI50 growth inhibition (HBL-1) was “T (T=0.5 to <0.7)”, the CI50 inhibition (HBL-1) was “W (W=≥1)” and the “Synergy Score growth inhibition” value (HBL-1) was “A2 (A2=1 to <3)”. The “Synergy Score inhibition” value (HBL-1) was “A1 (A1=0.0001 to <1)”, the CI50 growth inhibition [1] was “S (S=0.01 to <0.5)” and the CI50 inhibition (OMP-2) was “U (U=0.7 to <1)”. For the same compound, the “Synergy Score growth inhibition” value (OMP-2) was “A3 (A3=>3)”, the “Synergy Score inhibition” value (OMP-2) was “A2 (A2=1 to <3)” and the “Synergy Score growth inhibition” value (KARPAS-299) was “A1 (A1=0.0001 to <1)”. For the same compound, the “Synergy Score inhibition” value (KARPAS-299) was “A1 (A1=0.0001 to <1)”, the CI50 growth inhibition (Jeko-1) was “S (S=0.01 to <0.5)” and the CI50 inhibition (Jeko-1) was “S (S=0.01 to <0.5)”. The “Synergy Score growth inhibition” value (Jeko-1) was “A2 (A2=1 to <3)” and the “Synergy Score inhibition” value (Jeko-1) was “A2 (A2=1 to <3)”.
